# ChEMBL document CHEMBL1131685, “Design and semisynthesis of spermine-sensitive Ribonuclease S'” (Bioorg Med Chem Lett, 1999)
# Test: Binding constant for spermine binding to Ribonuclease S (RNA ase) by saturation curve method
row,Log K,Compound
1,3.7,C1CNCCNCCNCCN1
2,5.4,NCCCCNCCCN
3,5,NCCCNCCCCNCCCN
4,5,NCCN(CCN)CCN
5,5,NCCNCCNCCN

# Test: Association constant required to reduce the S-peptide / S-protein association by nonlinear curve fitting analysis
# Assay type: ADME
row,Log K,Compound
1,6.5,H-EETAEAKFERQHMDS-OH
2,7.1,H-KEDAADKFERQHMDS-OH
3,7.1,H-KEEAAAKFERQHMDS-OH
4,6.9,H-KEEAAEKFERQHMDS-OH
5,7.6,H-KETAAAKFERQHMDS-OH
